Molecular target: T1, HLA-A2.1 multimers (Homo sapiens, UniProt P04439, D140Y/D185E/D98H/E176V/E277Q/G131W/G231S/I119V/I121R/I166T/I218V/N151K/N90K/P208A/P217A/Q86G/Q94H/R138H/R169H)
T1 construct: made in house
Type: physicochemical

Substance: GIL*FVFTL (SEQ ID NO:3) [G4*]
- effect of UV exposure on amount of MHC complex recovered: substantial reduction in the amount of MHC complex recovered

Substance: GILGFVF*L (SEQ ID NO:4) [T8*]
- effect of UV exposure on amount of MHC complex recovered: substantial reduction in the amount of MHC complex recovered
